Measurements from PubChem BioAssay (NCI).
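Method: 48-hour compound exposure of cells in 96-well plates, five concentrations, linear interpolation of endpoints. GI50: concentration for 50% inhibition of growth. TGI denotes the concentration required for complete inhibition of growth.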

Experiments:
Assay in all cases: NCI anticancer screen, dose series, 48 h
[1] = tested on: 786-0 renal
[2] = tested on: A549 NSCLC
[3] = tested on: HOP-62 NSCLC
[4] = tested on: IGROV1 ovarian
[5] = tested on: NCI-H226 lung
[6] = tested on: OVCAR-5 ovarian
[7] = tested on: SK-MEL-2 melanoma
[8] = tested on: PC-3 prostate
[9] = tested on: T-47D breast
[10] = tested on: MDA-MB-231 breast

| Structure (SMILES) | TGI [1] | TGI [2] | TGI [3] | TGI [4] | TGI [5] | TGI [6] | TGI [7] | GI50 [1] | GI50 [2] | GI50 [3] | GI50 [4] | GI50 [6] | GI50 [8] | TGI [8] | GI50 [9] | TGI [9] | GI50 [10] | TGI [10] | GI50 [5] | GI50 [7] |
| --- | --- | --- | --- | --- | --- | --- | --- | --- | --- | --- | --- | --- | --- | --- | --- | --- | --- | --- | --- | --- |
| COc1ccc(/C(=N/NC(N)=O)C(c2ccc(OC)cc2)C2C(=O)Oc3ccccc32)cc1 (stereo not drawn) | > 100 µM | > 100 µM | > 100 µM | > 100 µM | > 100 µM | > 100 µM | – | – | – | – | – | – | – | – | – | – | – | – | – | – |
| COc1cc([C@@H]2c3cc4c(cc3[C@@H](NC(=O)c3cccc(F)c3)C3COC(=O)[C@@H]32)OCO4)cc(OC)c1O (stereo partly drawn) | 2.26 µM | 2.62 µM | 1.94 µM | 10.6 µM | 2.2 µM | 33 µM | 18 µM | – | – | – | – | – | – | – | – | – | – | – | – | – |
| CN(C)c1ccc(/C=N\N2C(=O)c3ccccc3C2=O)cc1 | > 100 µM | > 100 µM | > 100 µM | > 100 µM | > 100 µM | > 100 µM | > 100 µM | – | – | – | – | – | – | – | – | – | – | – | – | – |
| COc1ccc(-c2ccc(/C=N/n3c(C)nn(CN4CCN(C)CC4)c3=S)o2)c([N+](=O)[O-])c1 | > 100 µM | > 100 µM | > 100 µM | > 100 µM | – | > 100 µM | – | 39.4 µM | 60.8 µM | 32.9 µM | 63.4 µM | 62.6 µM | 24.9 µM | 92 µM | 45.6 µM | > 100 µM | – | – | – | – |
| CCC1CCc2nc3sc(C(=O)Nc4ccccc4C)c(N)c3cc2C1 (stereo not drawn) | > 100 µM | > 100 µM | > 100 µM | > 100 µM | > 100 µM | – | > 100 µM | 0.371 µM | 0.616 µM | 0.674 µM | > 100 µM | – | 0.622 µM | > 100 µM | 0.816 µM | > 100 µM | > 100 µM | > 100 µM | > 100 µM | 0.46 µM |
| O=C1C2c3[nH]c4ccccc4c3[C@@H]3CCCCC3C2C(=O)N1c1ccccc1 (stereo partly drawn) | 37.5 µM | > 100 µM | – | 74.8 µM | 42.2 µM | 51.8 µM | – | – | – | – | – | – | – | – | – | – | – | – | – | – |
| c1ccc(COCC2OC3c4ccccc4COC3C2OCc2ccccc2)cc1 (stereo not drawn) | > 100 µM | > 100 µM | – | > 100 µM | > 100 µM | > 100 µM | > 100 µM | – | – | – | – | – | – | – | – | – | – | – | – | – |
| COc1ccc(CNc2nc3c(NC(C)=O)cc(C(F)(F)F)cc3nc2-c2ccccc2)cc1OC | > 100 µM | > 100 µM | > 100 µM | > 100 µM | – | > 100 µM | > 100 µM | – | – | – | – | – | – | – | – | – | – | – | – | – |
| COC(OC)[C@@H](C)[C@H](O)[C@](C)(O)C1OC(C)(C)OC(C(C)C=C(C)C)C1C (stereo partly drawn) | > 100 µM | > 100 µM | > 100 µM | > 100 µM | > 100 µM | > 100 µM | > 100 µM | – | – | – | – | – | – | – | – | – | – | – | – | – |
| O=C(NO)C(=O)Nc1ccc(Cl)cc1[N+](=O)[O-] | > 100 µM | > 100 µM | > 100 µM | > 100 µM | > 100 µM | > 100 µM | > 100 µM | – | – | – | – | – | – | – | – | – | – | – | – | – |
| Cc1cc(C)c(S(=O)(=O)ONC(=O)OC(C)(C)C)c(C)c1 | > 100 µM | > 100 µM | > 100 µM | > 100 µM | – | > 100 µM | > 100 µM | – | – | – | – | – | – | – | – | – | – | – | – | – |
| N#Cc1ccc(C(c2ccc(C#N)cc2)n2cncn2)cc1 | > 5000 µM | > 5000 µM | > 5000 µM | – | > 5000 µM | > 5000 µM | – | > 5000 µM | > 5000 µM | 915 µM | 47.5 µM | > 5000 µM | > 5000 µM | > 5000 µM | > 5000 µM | > 5000 µM | – | – | > 5000 µM | – |
| Nc1nnc(Cn2c(-c3ccccc3)nc3ccc(Br)cc3c2=O)s1 | > 100 µM | > 100 µM | > 100 µM | > 100 µM | – | > 100 µM | > 100 µM | 58.7 µM | 25 µM | 36.8 µM | 18.3 µM | > 100 µM | 38.2 µM | > 100 µM | > 100 µM | > 100 µM | 36.2 µM | > 100 µM | – | > 100 µM |
| CCOC(=O)NC(=O)c1cn(CCN2CCN(C(=O)CCCCCCCCCCNc3ncnc4nc[nH]c34)CC2)c(=O)[nH]c1=O | > 100 µM | > 100 µM | > 100 µM | > 100 µM | > 100 µM | > 100 µM | > 100 µM | – | – | – | – | – | – | – | – | – | – | – | – | – |
| CCC(C(=O)[O-])C(=O)[O-].CCC(C(=O)[O-])C(=O)[O-].N.N.NCCCCCCN.[Pt+4].[Pt+4] | 14.5 µM | 24.1 µM | 50 µM | 18.7 µM | 20.2 µM | 19.7 µM | 16.9 µM | 7.74 µM | 10.8 µM | 20.4 µM | 8.13 µM | 10.7 µM | – | – | – | – | – | – | 10 µM | 8.4 µM |
| O=C(NCCCCCCCCNC(=O)c1cccc2ccccc12)c1cccc2ccccc12 | 23.3 µM | > 100 µM | 13.5 µM | > 76.1 µM | 22.8 µM | > 100 µM | > 100 µM | – | – | – | – | – | – | > 100 µM | – | – | – | – | – | – |
| CC(=O)OCC1O[C@@H]([S-])C(OC(C)=O)[C@H](OC(C)=O)[C@@H]1OC(C)=O.[Au+].c1ccc(CN2[CH-]N(Cc3ccccc3)C(c3ccccc3)=C2c2ccccc2)cc1 | 3.39 µM | 21.4 µM | – | – | 9.04 µM | 3.96 µM | 3.43 µM | 1.69 µM | 3.81 µM | – | – | 1.92 µM | 1.83 µM | 3.7 µM | – | – | – | – | 3 µM | 1.74 µM |
| CC1=C(c2cc(C(=O)Nc3cccc(C(F)(F)F)c3)ncn2)Sc2ccccc2N1 | > 100 µM | > 100 µM | > 100 µM | > 100 µM | > 100 µM | – | > 100 µM | – | – | – | – | – | – | – | – | – | – | – | – | – |
| O=C([O-])c1ccc(C(=O)[O-])cc1.O=C([O-])c1ccc(C(=O)[O-])cc1.[Mo+2].[Mo+2] | > 100 µM | > 100 µM | – | > 100 µM | > 100 µM | > 100 µM | > 100 µM | > 100 µM | > 100 µM | – | > 100 µM | > 100 µM | – | – | – | – | – | – | > 100 µM | > 100 µM |
| Cc1nc(Nc2ccc([N+](=O)[O-])cc2)sc1C(/C=C/c1ccc(N(C)C)cc1)=N/NC(=O)c1ccccc1 | > 100 µM | > 100 µM | > 100 µM | > 100 µM | > 100 µM | > 100 µM | > 100 µM | – | – | – | – | – | – | – | – | – | – | – | – | – |
| OC(c1ccccn1)C1CNc2ccccc21 (stereo not drawn) | > 100 µM | > 100 µM | > 100 µM | > 100 µM | > 100 µM | > 100 µM | > 100 µM | – | – | – | – | – | – | – | – | – | – | – | – | – |
| NC(=O)/C=C/NC(=O)/C=N\O | > 100 µM | – | > 100 µM | > 100 µM | > 100 µM | > 100 µM | – | – | – | – | – | – | – | > 100 µM | – | > 100 µM | – | > 100 µM | – | – |
